Where two headings read alike, the source gives them in different places.
Legend:
pAKT in BT474 cells = assay: Cell-based pAKT HTRF assay in BT474 cells; details: BT474 cells, 4 hr incubation, read-out: pAKT inhibition IC50 in BT474 cells
In short: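 9-pt curve, top 3 μM, 3-fold steps, 0.25% DMSO; 4 hr compound exposure. Lysis, then HTRF with d2/Eu Cryptate antibody pair, 4–24 h RT. Ex 320 nm, Em 615 nm.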

[1] = biological target: Cys242 in human PIK3CA (157-299) (Homo sapiens (Human), UniProt P42336); assay: Covalent modification assay using MALDI-TOF MS; type: biochemical; details: 4 h reaction time point
In short: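 Covalent adduct formation was read by linear-mode MALDI-TOF with sinapinic acid matrix, reported as modified-protein peak height divided by total protein peak heights. Reactions held PIK3CA (157-299) at 1 or 3.33 μM in HEPES/NaCl/MgCl2 buffer, pH 7.3, sampled after 15 min to 4 h at room temperature.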

[2] = 3.33 μM protein target, 1:7.5 protein to compound ratio (compounds 1-852)
[3] = 1 μM protein target, 1:5 protein to compound ratio (compounds 853-1279)
[4] = Homo sapiens, BT-474, Compounds 10-999

Cys242 in human PIK3CA (157-299), sequence (P42336 157-299): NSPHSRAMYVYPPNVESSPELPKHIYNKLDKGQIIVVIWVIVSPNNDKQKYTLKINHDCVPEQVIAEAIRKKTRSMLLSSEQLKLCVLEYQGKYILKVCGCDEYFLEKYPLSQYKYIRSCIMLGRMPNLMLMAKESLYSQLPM

| Compound | IC50 (pAKT in BT474 cells; Compounds 10-999) [nM] | % of modification [1, 2] | % of modification [1, 3] | IC50 (pAKT in BT474 cells; Compounds 1000-1279) [nM] | IC50 (pAKT in BT474 cells; [4]) [nM] |
| --- | --- | --- | --- | --- | --- |
| C=CC(=O)N1CCc2nc(-c3nc(-c4ccc5c(c4)CCNC5)c4ccsc4c3-c3c(F)cc(F)cc3OCCOC)sc2C1 [Compound 366] | 100 to 1000 | A (percent of modification of PIK3CA protein ≥75%) |  |  |  |
| C=CC(=O)N1CCc2ncc(-c3nc(-c4ccn(C(F)F)c(=O)c4)c4ccsc4c3-c3c(F)cc(F)cc3OC(C)C)cc2C1 [Compound 359] | < 100 | A (percent of modification of PIK3CA protein ≥75%) |  |  |  |
| C=CC(=O)N1CCn2nc(-c3nc(-c4ccc5c(c4)CNC(=O)C5)c4ccsc4c3-c3c(F)cc(F)cc3OCCO)cc2[C@H]1C [Compound 890] | < 100 |  | A (percent of modification of PIK3CA protein ≥75%) |  |  |
| C=CC(=O)N1CCn2nc(-c3nc(-c4cnc5cnn(C)c5c4)c4ccsc4c3-c3c(F)cc(F)cc3OCCOC)cc2C1C (stereo not shown) [Compound 902] | < 100 |  | A (percent of modification of PIK3CA protein ≥75%) |  |  |
| C=CC(=O)N1CCc2ncc(-c3nc(-c4cncc(C#N)c4)c4ccsc4c3-c3c(F)cc(F)cc3OCCOC)cc2C1 [Compound 376] | < 100 | A (percent of modification of PIK3CA protein ≥75%) |  |  |  |
| C=CC(=O)N1Cc2cc(-c3nc(-c4ccc5nn(C)cc5c4)c4ccsc4c3-c3c(F)cc(F)cc3OC)nn2C[C@H]1C [Compound 821] | < 100 | A (percent of modification of PIK3CA protein ≥75%) |  |  |  |
| C=CC(=O)N1Cc2cc(-c3nc(-c4ccc5ncn(C)c5c4)c4ccsc4c3-c3c(F)cc(F)cc3OCCOC)nn2C[C@H]1C [Compound 689] | < 100 | A (percent of modification of PIK3CA protein ≥75%) |  |  |  |
| C=CC(=O)N1CCn2nc(-c3nc(-c4cnn(C)c4)c4ccsc4c3-c3ccc(Cl)cc3F)cc2C1 [Compound 284] | 100 to 1000 | A (percent of modification of PIK3CA protein ≥75%) |  |  |  |
| CC=C(C#N)C(=O)N1CCn2nc(-c3nc(-c4ccc5c(cnn5C)c4)c4ccsc4c3-c3c(F)cc(F)cc3OCCOC)cc2C1C (stereo not shown) [Compound 1239] |  |  | C (25%≤percent of modification <50%) | > 1000 |  |
| C=CC(=O)N1Cc2cc(-c3nc(-c4cnc(C)nc4)c4ccsc4c3-c3c(F)cc(F)cc3OC[C@@H](C)O)nn2C[C@H]1C [Compound 757] | < 100 | A (percent of modification of PIK3CA protein ≥75%) |  |  |  |
| C=CC(=O)N1CC(n2cc(-c3nc(-c4cnn(C)c4)c4ccsc4c3-c3ccc(F)cc3OC)cn2)C1 [Compound 76] | < 100 | A (percent of modification of PIK3CA protein ≥75%) |  |  |  |
| C=CC(=O)N1CCc2ncc(-c3nc(N4CCC5(CC4)COC5)c4ccsc4c3-c3c(F)cc(F)cc3OC(C)C)cc2C1 [Compound 423] | 100 to 1000 | A (percent of modification of PIK3CA protein ≥75%) |  |  |  |
| C=CC(=O)N1Cc2cc(-c3nc(-c4cn(C)cn4)c4ccsc4c3-c3c(F)cc(F)cc3OC(C)C)nn2CC1C (stereo not shown) [Compound 496] | < 100 | A (percent of modification of PIK3CA protein ≥75%) |  |  |  |
| C=CC(=O)N1CCc2ncc(-c3nc(-c4cnc(C)o4)c4ccsc4c3-c3c(F)cc(F)cc3OC(C)C)cc2C1 [Compound 455] | < 100 | A (percent of modification of PIK3CA protein ≥75%) |  |  |  |
| C=CC(=O)N1CCc2nc(-c3nc(-c4ccc5c(c4)CCN(CC(F)F)CC5)c4ccsc4c3-c3c(F)cc(F)cc3OCCOC)sc2C1 [Compound 1270] |  |  | A (percent of modification of PIK3CA protein ≥75%) | 100 to 1000 |  |
| C=CC(=O)N1CCn2nc(-c3nc(-c4ccc(=O)n(C)c4)cnc3-c3ccc(F)cc3OC(C)C)cc2C1 [Compound 273, 5-[5-(4-fluoro-2-isopropoxy-phenyl)-6-(5-prop-2-enoyl-6,7-dihydro-4H-pyrazolo[1,5-a]pyrazin-2-yl)pyrazin-2-yl]-1-methyl-pyridin-2-one] |  | C (25%≤percent of modification <50%) |  |  | > 3000 |

| Compound | IC50 (pAKT in BT474 cells; Compounds 10-999) [nM] | % of modification [1, 2] | % of modification [1, 3] | IC50 (pAKT in BT474 cells; Compounds 1000-1279) [nM] | IC50 (pAKT in BT474 cells; [4]) [nM] |
| --- | --- | --- | --- | --- | --- |
| C=CC(=O)N1Cc2cc(-c3nc(-c4ccc5cn(C)nc5c4)c4ccsc4c3-c3c(F)cc(F)cc3OC[C@@H](C)O)nn2C[C@H]1C [Compound 752] | < 100 | A (percent of modification of PIK3CA protein ≥75%) |  |  |  |
| C=CC(=O)N1CCn2nc(-c3nc(-c4cnn(C)c4)ccc3-c3ccc(F)cc3OCCOC)cc2C1 [Compound 322, 1-[2-[3-[4-fluoro-2-(2-methoxyethoxy)phenyl]-6-(1-methylpyrazol-4-yl)-2-pyridyl]-6,7-dihydro-4H-pyrazolo[1,5-a]pyrazin-5-yl]prop-2-en-1-one] |  | C (25%≤percent of modification <50%) |  |  | > 3000 |
| C=C(F)C(=O)N1CCn2nc(-c3nc(-c4ccc5c(c4)CCN(C)C5)c4ccsc4c3-c3c(F)cc(F)cc3OC(C)C)cc2C1 [Compound 342] | < 100 | B (50%<percent of modification <75%) |  |  |  |
| C=CC(=O)N1Cc2cc(-c3nc(-c4ccc5c(c4)CCN(C)C5)c4ccsc4c3-c3c(F)cc(F)cc3OCCOC)nn2[C@@H](C)C1 [Compound 560] | < 100 | A (percent of modification of PIK3CA protein ≥75%) |  |  |  |
| C=CC(=O)N1CCn2nc(-c3nc(-c4cnn(C)c4)c(Cl)cc3-c3ccc(F)cc3OCCOC)cc2C1 [Compound 355, 1-[2-[5-chloro-3-[4-fluoro-2-(2-methoxyethoxy)phenyl]-6-(1-methylpyrazol-4-yl)-2-pyridyl]-6,7-dihydro-4H-pyrazolo[1,5-a]pyrazin-5-yl]prop-2-en-1-one] |  | A (percent of modification of PIK3CA protein ≥75%) |  |  | > 3000 |
| C=CC(=O)N1CCc2nc(-c3nc(-c4ccc5c(c4)CNC5)c4ccsc4c3-c3ccc(F)cc3OCCOC)sc2C1 [Compound 153] | < 100 | A (percent of modification of PIK3CA protein ≥75%) |  |  |  |
| C=CC(=O)N1CCc2nc(-c3nc(C4CCN(C(C)C)CC4)c4ccsc4c3-c3ccc(F)cc3OCCOC)sc2C1 [Compound 143, 1-(2-(7-(4-fluoro-2-(2-methoxyethoxy)phenyl)-4-(1-isopropylpiperidin-4-yl)thieno[3,2-c]pyridin-6-yl)-6,7-dihydrothiazolo[5,4-c]pyridin-5(4H)-yl)prop-2-en-1-one] |  | A (percent of modification of PIK3CA protein ≥75%) |  |  | 100 to 1000 |
| CC(C)Oc1cc(F)ccc1-c1c(-c2cc3n(n2)CCN(C(=O)/C=C/CN(C)C)C3)nc(-c2ccc3c(c2)CCNC3=O)c2ccsc12 [Compound 285] | 100 to 1000 | B (50%<percent of modification <75%) |  |  |  |
| C=CC(=O)N1CCn2nc(-c3nc(-c4ccnc(OCCN(C)C)c4)c4ccsc4c3-c3c(F)cc(F)cc3OCCOC)cc2C1C (stereo not shown) [Compound 1199] |  |  | A (percent of modification of PIK3CA protein ≥75%) | < 100 |  |
| C=CC(=O)N1CCn2nc(-c3nc(-c4cnc5c(c4)CN(CC(F)F)CC5)c4ccsc4c3-c3c(F)cc(F)cc3OCCOC)cc2C1C (stereo not shown) [Compound 1081] |  |  | A (percent of modification of PIK3CA protein ≥75%) | < 100 |  |
| C=CC(=O)N1CCn2nc(-c3nc(N4CCS(=O)(=O)CC4)c4ccsc4c3-c3ccc(F)cc3OC(C)C)cc2C1 [Compound 286] | > 3000 | A (percent of modification of PIK3CA protein ≥75%) |  |  |  |
| C=CC(=O)N1Cc2cc(-c3nc(-c4ccc5nn(C)cc5c4)c4ccsc4c3-c3c(F)cc(F)cc3OC[C@@H](C)O)nn2[C@@H](C)C1 [Compound 572, 1-((S)-2-((S)-7-(2,4-difluoro-6-((R)-2-hydroxypropoxy)phenyl)-4-(2-methyl-2H-indazol-5-yl)thieno[3,2-c]pyridin-6-yl)-7-methyl-6,7-dihydropyrazolo[1,5-a]pyrazin-5(4H)-yl)prop-2-en-1-one] | < 100 | A (percent of modification of PIK3CA protein ≥75%) |  |  |  |
| C=CC(=O)N1CCc2ncc(-c3nc(-c4ccc5c(c4)CN(CCOC)CC5(F)F)c4ccsc4c3-c3c(F)cc(F)cc3OCCOC)cc2C1 [Compound 1278] |  |  | A (percent of modification of PIK3CA protein ≥75%) | < 100 |  |
| C=CC(=O)N1CCc2nc(-c3nc(-c4cnn(CC(C)(C)O)c4)c4ccsc4c3-c3c(F)cc(F)cc3OC(C)C)sc2C1 [Compound 344] | < 100 | A (percent of modification of PIK3CA protein ≥75%) |  |  |  |
| C=CC(=O)N1CCc2ncc(-c3nc(-c4cnc5c(c4)CN(C)CC5)c4ccsc4c3-c3c(F)cc(F)cc3OC(C)C)cc2C1 [Compound 327] | < 100 | A (percent of modification of PIK3CA protein ≥75%) |  |  |  |
| C=CC(=O)N1CC(n2cc(-c3nc(-c4ccc5c(c4)CCNC5)c4c(c3-c3ccc(F)cc3OC)CCC4)cn2)C1 [Compound 97, 1-[3-[4-[4-(4-fluoro-2-methoxy-phenyl)-1-(1,2,3,4-tetrahydroisoquinolin-6-yl)-6,7-dihydro-5H-cyclopenta[c]pyridin-3-yl]pyrazol-1-yl]azetidin-1-yl]prop-2-en-1-one] |  | A (percent of modification of PIK3CA protein ≥75%) |  |  | 100 to 1000 |

Reference: patent US20250230138A1, “COMPOUNDS HAVING A T-STRUCTURE FORMED BY AT LEAST FOUR CYCLES FOR USE IN THE TREATMENT OF CANCER AND OTHER INDICATIONS” (TheRas, Inc., priority 2022, published 2025)
